Source: patent US20230217926A1, “SELECTIVE HERBICIDES BASED ON SUBSTITUTED ISOXAZOLIN CARBOXAMIDES AND ISOXADIFEN-ETHYL” (BAYER AKTIENGESELLSCHAFT, priority 2020, published 2023)
“And” between values parts separate entries of the source, which are not always exact repeats. Equal values may be shown once.

Experiments:
ZEAMA Sileno [1] = experiment: Tank-mix post-emergence crop damage, greenhouse, visual assessment; type: in vivo, maize; design: key to Reduction [Difference]: % points: herbicide damage without safener − damage with safener; conditions: for HER effect + SAF / Reduction [%] / Reduction [Difference]: Final; for HER effect: no safener, Final assessment
Method: Seeds of crops (spring wheat, TRZAS; spring barley, HORVS; maize, ZEAMA) were placed in sandy loam soil in peat pots, covered with soil and cultivated in a greenhouse under good growth conditions. Two to three weeks after sowing, the test plants were treated at the 1 to 3-leaf stage. The herbicide/safener active compound combinations according to the invention, formulated as wettable powders or emulsion concentrates, and, in parallel tests, the correspondingly formulated individual active compounds were sprayed onto the green parts of the plants in various dosages using an amount of water of 300 l/ha (converted).
The pots were returned under good growing conditions in a glasshouse and a visual assessment of herbicidal effects was made at intervals from 1 to 3 weeks after herbicide application (DAT=days after treatment). Assessment was on a percentage basis in comparison with untreated control plants (0%=no injury, 100%=complete kill).
Reduction[Difference]=herbicide damage without safener−herbicide damage with safener Reduction[%]=(Reduction[Difference]*100)/herbicide damage without safener
a) Plant Species, Variety: ZEAMA Sileno, Safener (SAF): Isoxadifen-Ethyl

ZEAMA Sileno [2] = experiment: Safener seed treatment, pre-emergence herbicide, crop damage; type: in vivo, maize; design: key to Reduction [Difference]: % crop damage without safener minus % damage with safener; conditions: for Reduction [%] / Reduction [Difference]: isoxadifen-ethyl 0.25 g a.i./kg seed; for HER effect + SAF: isoxadifen-ethyl seed treatment 0.25 g a.i./kg seed; for HER effect: no safener
Method: For the safener seed treatment, sufficient seeds of the respective crops (spring wheat, TRZAS; spring barley, HORVS; maize, ZEAMA) were weighed into screw top glass bottles approximately twice the volume of the seeds.
The specified safeners, formulated as wettable powder (WP) were weighed out so that the specified rates (g a.i./kg seed) would be obtained, dissolved in water (1 ml water per 10 g of seeds), and added to the seeds to produce a slurry.
The bottles were capped and then placed in an overhead shaker (set at medium speed for ca. 60 minutes) so that the seeds were evenly coated with the slurry. The bottles were uncapped and the seeds were either placed on paper and dried for an interval of 3-4 hours prior to sowing, or directly sown. Seeds were placed in sandy loam soil in pots of a diameter of 7-8 cm, and covered with soil.
Pre-emergence application of the specified herbicides was done subsequently, on two sets of plants: a) seed treatment with safener, as described above
The herbicides were formulated as WP and was sprayed onto the soil surface as an aqueous suspension at an equivalent water application rate of 300 l/ha.
After application, the test plants were kept in the greenhouse under good growth conditions. At intervals up to 4 weeks after application (=28 days after treatment; DAT), % crop damage observed on the treated plants was scored visually in comparison to control plants that had not received any safener or herbicide treatment.
Values in the table below are mean values of at least 2 replicates.
Reduction[Difference]=herbicide damage without safener−herbicide damage with safener Reduction[%]=(Reduction[Difference]*100)/herbicide damage without safener […]
c) Plant Species, Variety: ZEAMA Sileno, Safener (SAF): Isoxadifen-Ethyl

[3] = HER 8 g a.i./ha + isoxadifen-ethyl 50 g a.i./ha
[4] = HER 8 g a.i./ha, isoxadifen-ethyl 50 g a.i./ha
[5] = HER 32 g a.i./ha + isoxadifen-ethyl 100 g a.i./ha
[6] = HER 32 g a.i./ha, isoxadifen-ethyl 100 g a.i./ha
[7] = HER 80 g a.i./ha pre-emergence, 14 DAT
[8] = HER 2 g a.i./ha + isoxadifen-ethyl 50 g a.i./ha
[9] = HER 2 g a.i./ha, isoxadifen-ethyl 50 g a.i./ha
[10] = HER 2 g a.i./ha, 0%=no injury, 100%=complete kill
[11] = HER 40 g a.i./ha pre-emergence, 14 DAT
[12] = HER 40 g a.i./ha pre-emergence, 26 DAT
[13] = HER 80 g a.i./ha pre-emergence, 26 DAT

Row | SMILES | HER effect + SAF (ZEAMA Sileno [1]; [3]) | Reduction [%] (ZEAMA Sileno [1]; [4]) | Reduction [Difference] (ZEAMA Sileno [1]; [4]) | HER effect (ZEAMA Sileno [1]; HER 8 g a.i./ha) | HER effect + SAF (ZEAMA Sileno [1]; [5]) | Reduction [%] (ZEAMA Sileno [1]; [6]) | Reduction [Difference] (ZEAMA Sileno [1]; [6]) | HER effect (ZEAMA Sileno [1]; HER 32 g a.i./ha) | further results
1 | COC(=O)C1C=CC(NC(=O)C2(C)CC(c3cc(Cl)cc(C#N)c3)=NO2)C1 (mixture of isomers) [Example 1.23] | 30% | 40% | 20 | 50% | 30% | 57% | 40 | 70% | –
2 | C=CC1(C(=O)NC2COC(C(=O)OCCOC)C2)CC(c2cc(F)cc(F)c2)=NO1 (mixture of isomers) [Example 1.66] | 43% | 55% | 53 | 96% | 47% | 52% | 50 | 97% | –
3 | C=CCOC(=O)C1CC(NC(=O)C2(C)CC(c3cc(F)cc(F)c3)=NO2)CO1 (mixture of isomers) [Example 1.75] | 23% | 68% | 50 | 73% | 43% | 51% | 45 | 88% | –
4 | C=CC1(C(=O)NC2COC(C(=O)OCCCl)C2)CC(c2cc(F)cc(F)c2)=NO1 (mixture of isomers) [Example 1.82] | 65% and 53% | 28% and 43% | 25 and 40 | 90% and 93% | 75% and 55% | 22% and 40% | 21 and 37 | 96% and 92% | –
5 | C=CCOC(=O)C1CC(NC(=O)C2(C=C)CC(c3cc(F)cc(F)c3)=NO2)CO1 (mixture of isomers) [Example 1.83] | 28% | 55% | 34 | 62% | 20% | 76% | 65 | 85% | –
6 | COCCOC(=O)C1C=CC(NC(=O)C2(C(F)(F)F)CC(c3cc(F)cc(C#N)c3)=NO2)C1 (centres unmarked) [Example 1.2] | 65% | 28% | 25 | 90% | 75% | 22% | 21 | 96% | Reduction [%] (ZEAMA Sileno [2]; [7]): 78%; Reduction [Difference] (ZEAMA Sileno [2]; [7]): 35; HER effect + SAF (ZEAMA Sileno [2]; [7]): 10%; HER effect (ZEAMA Sileno [2]; [7]): 45%
7 | CCOC(=O)C1C=CC(NC(=O)C2(C(F)(F)F)CC(c3ccccc3)=NO2)C1 (centres unmarked) [Example 1.9] | 22% | 72% | 56 | 78% | 22% | 74% | 63 | 85% | Reduction [%] (ZEAMA Sileno [2]; [7]): 83%; Reduction [Difference] (ZEAMA Sileno [2]; [7]): 25; HER effect + SAF (ZEAMA Sileno [2]; [7]): 5%; HER effect (ZEAMA Sileno [2]; [7]): 30%
8 | CCOC(=O)C1C=CC(NC(=O)C2(CF)CC(c3cc(F)cc(F)c3)=NO2)C1 (centres unmarked) [Example 1.17] | 20% | 79% | 75 | 95% | – | – | – | – | HER effect + SAF (ZEAMA Sileno [1]; [8]): 10%; Reduction [%] (ZEAMA Sileno [1]; [9]): 78%; Reduction [Difference] (ZEAMA Sileno [1]; [9]): 35; HER effect (ZEAMA Sileno [1]; [10]): 45%
9 | COC(=O)C1C=CC(NC(=O)C2(C)CC(c3cc(F)cc(F)c3)=NO2)C1 (centres unmarked) [Example 1.19] | 20% | 50% | 20 | 40% | – | – | – | – | –
10 | CC1(C(=O)NC2C=CC(C(=O)OCCSCc3ccccc3)C2)CC(c2cc(F)cc(F)c2)=NO1 (centres unmarked) [Example 1.27] | – | – | – | – | 30% | 50% | 30 | 60% | –
11 | CN(C)C(=O)SCCOC(=O)C1C=CC(NC(=O)C2(C)CC(c3cc(F)cc(F)c3)=NO2)C1 (centres unmarked) [Example 1.29] | 25% | 58% | 35 | 60% | 25% | 67% | 50 | 75% | Reduction [%] (ZEAMA Sileno [2]; [7]): 33%; Reduction [Difference] (ZEAMA Sileno [2]; [7]): 20; HER effect + SAF (ZEAMA Sileno [2]; [7]): 40%; HER effect (ZEAMA Sileno [2]; [7]): 60%
12 | CCOC(=O)C1=CCC(NC(=O)C2(C)CC(c3cccc(F)c3)=NO2)C1 (centres unmarked) [Example 1.59] | – | – | – | – | 10% | 85% | 57 | 67% | –
13 | COC(=O)C1=CC(NC(=O)C2(C)CC(c3cc(F)cc(F)c3)=NO2)CC1 (centres unmarked) [Example 1.63] | 40% | 53% | 45 | 85% | 43% | 51% | 45 | 88% | Reduction [%] (ZEAMA Sileno [2]; [11]): 50%; Reduction [Difference] (ZEAMA Sileno [2]; [11]): 30; Reduction [%] (ZEAMA Sileno [2]; [12]): 100%; Reduction [Difference] (ZEAMA Sileno [2]; [12]): 25; HER effect + SAF (ZEAMA Sileno [2]; [11]): 30%; HER effect + SAF (ZEAMA Sileno [2]; [12]): 0%; HER effect (ZEAMA Sileno [2]; [11]): 60%; HER effect (ZEAMA Sileno [2]; [12]): 25%
14 | C=CC1(C(=O)NC2COC(C(=O)OC)C2)CC(c2cc(F)cc(F)c2)=NO1 (centres unmarked) [Example 1.69] | 33% | 64% | 59 | 92% | 30% | 68% | 63 | 93% | Reduction [%] (ZEAMA Sileno [2]; [11]): 42%; Reduction [Difference] (ZEAMA Sileno [2]; [11]): 40; Reduction [%] (ZEAMA Sileno [2]; [12]): 28%; Reduction [Difference] (ZEAMA Sileno [2]; [12]): 25; HER effect + SAF (ZEAMA Sileno [2]; [11]): 55%; HER effect + SAF (ZEAMA Sileno [2]; [12]): 65%; HER effect (ZEAMA Sileno [2]; [11]): 95%; HER effect (ZEAMA Sileno [2]; [12]): 90%
15 | C=CC1(C(=O)NC2COC(C(=O)OC)C2)CC(c2cc(F)cc(F)c2)=NO1 (centres unmarked) [Example 1.70] | – | – | – | – | – | – | – | – | Reduction [%] (ZEAMA Sileno [2]; [11]): 44%; Reduction [Difference] (ZEAMA Sileno [2]; [11]): 35; Reduction [%] (ZEAMA Sileno [2]; [12]): 53%; Reduction [Difference] (ZEAMA Sileno [2]; [12]): 45; HER effect + SAF (ZEAMA Sileno [2]; [11]): 45%; HER effect + SAF (ZEAMA Sileno [2]; [12]): 40%; HER effect (ZEAMA Sileno [2]; [11]): 80%; HER effect (ZEAMA Sileno [2]; [12]): 85%; Reduction [%] (ZEAMA Sileno [2]; [7]): 26%; Reduction [Difference] (ZEAMA Sileno [2]; [7]): 25; Reduction [%] (ZEAMA Sileno [2]; [13]): 21%; Reduction [Difference] (ZEAMA Sileno [2]; [13]): 20; HER effect + SAF (ZEAMA Sileno [2]; [7]): 70%; HER effect + SAF (ZEAMA Sileno [2]; [13]): 75%; HER effect (ZEAMA Sileno [2]; [7]): 95%; HER effect (ZEAMA Sileno [2]; [13]): 95%; HER effect + SAF (ZEAMA Sileno [1]; [8]): 35%; Reduction [%] (ZEAMA Sileno [1]; [9]): 60%; Reduction [Difference] (ZEAMA Sileno [1]; [9]): 53; HER effect (ZEAMA Sileno [1]; [10]): 88%
16 | COC(=O)C1OCCC1NC(=O)C1(C)CC(c2cc(F)cc(F)c2)=NO1 (centres unmarked) [Example 1.92] | 42% | 56% | 53 | 95% | 38% | 61% | 59 | 97% | Reduction [%] (ZEAMA Sileno [2]; [11]): 93%; Reduction [Difference] (ZEAMA Sileno [2]; [11]): 70; Reduction [%] (ZEAMA Sileno [2]; [12]): 86%; Reduction [Difference] (ZEAMA Sileno [2]; [12]): 60; HER effect + SAF (ZEAMA Sileno [2]; [11]): 5%; HER effect + SAF (ZEAMA Sileno [2]; [12]): 10%; HER effect (ZEAMA Sileno [2]; [11]): 75%; HER effect (ZEAMA Sileno [2]; [12]): 70%
